The text below walks through data of patent US10093713B2, “GIP-GLP-1 dual agonist compounds and methods” (priority 2013, dated 2018).

As a reminder, the EC50 is the concentration that produces a half-maximal response.

One experiment has as its target T1, human GIP R (Homo sapiens, UniProt P48546).
T1 construct: expressed in transfected cells
T1 sequence (P48546 22-466): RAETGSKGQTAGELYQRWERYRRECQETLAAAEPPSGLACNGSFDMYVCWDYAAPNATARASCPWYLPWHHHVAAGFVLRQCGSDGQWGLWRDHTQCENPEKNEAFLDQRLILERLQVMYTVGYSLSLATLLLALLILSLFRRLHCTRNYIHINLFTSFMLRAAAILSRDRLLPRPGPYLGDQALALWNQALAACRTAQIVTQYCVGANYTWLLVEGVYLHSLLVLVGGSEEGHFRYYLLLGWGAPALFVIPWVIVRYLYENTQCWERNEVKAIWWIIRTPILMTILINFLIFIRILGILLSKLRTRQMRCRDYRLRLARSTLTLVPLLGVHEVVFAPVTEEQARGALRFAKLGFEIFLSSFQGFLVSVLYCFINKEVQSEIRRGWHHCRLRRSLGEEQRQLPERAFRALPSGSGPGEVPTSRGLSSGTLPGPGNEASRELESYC
Briefly: Human GIP receptor (GIP R) activity assay, cAMP induction (AlphaScreen) in HEK293 cells. The experiment is classed as cell-based. As to conditions: Table 3; most comprehensive data; read-out: hGIP-R cAMP EC50 average value. In a few lines:
(§1)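 Stable HEK293 clones expressing human GIP R or GLP-1 R, seeded 1 day before; cells washed in Tyrode's buffer (10 mM HEPES, pH 7.4), stimulated, then lysed. cAMP measured by AlphaScreen bead competition (1 h, room temperature, dark). EC50 = concentration giving half-maximal cAMP elevation, from curves of absolute cAMP (nM) vs log concentration.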
Background: Alpha assays give light when donor and acceptor beads are brought close together.

In the next experiment the target is T2, human GLP-1 R (Homo sapiens, UniProt P43220).
T2 construct: expressed in transfected cells
The experiment in a line: Human GLP-1 receptor (GLP-1 R) activity assay, cAMP induction (AlphaScreen) in HEK293 cells. As to conditions: Table 3; most comprehensive data; read-out: hGLP-1-R cAMP EC50 average value. The experiment is classed as cell-based. Put shortly:
as §1

The structures appear in SMILES notation. *1 amine or outer side, *2 acyl side, *3 side chain or, on linkers, in order; H or OH if unused. Where a SMILES comes first, the peptide text is derived from it. Side-chain parts run from the residue outwards. [ ]: non-standard residue; d: D form. The star is where a group is joined. C20 diacid = O=C(O)CCCCCCCCCCCCCCCCCCC(=O)*; γGlu = O=C(O)[C@H](CCC(=O)[*:2])N[*:1]; AEEA = NCCOCCOCC(=O)O; Aib = CC(C)(N)C(=O)O

T2 sequence (P43220 24-463): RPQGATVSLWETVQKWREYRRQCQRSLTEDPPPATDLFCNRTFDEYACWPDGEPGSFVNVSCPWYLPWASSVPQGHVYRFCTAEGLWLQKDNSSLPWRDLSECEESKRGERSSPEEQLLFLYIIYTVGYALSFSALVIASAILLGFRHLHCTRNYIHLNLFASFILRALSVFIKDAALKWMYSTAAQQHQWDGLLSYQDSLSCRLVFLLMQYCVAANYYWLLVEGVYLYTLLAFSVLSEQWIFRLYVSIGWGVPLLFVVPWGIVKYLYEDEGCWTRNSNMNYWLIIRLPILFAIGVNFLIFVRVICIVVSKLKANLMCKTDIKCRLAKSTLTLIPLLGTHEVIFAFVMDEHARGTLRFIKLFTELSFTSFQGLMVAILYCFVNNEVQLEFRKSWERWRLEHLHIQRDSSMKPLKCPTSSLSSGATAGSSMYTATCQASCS

Take `CC[C@H](C)[C@H](NC(=O)[C@H](CO)NC(=O)[C@H](Cc1ccc(O)cc1)NC(=O)[C@H](CC(=O)O)NC(=O)[C@H](CO)NC(=O)[C@@H](NC(=O)[C@H](Cc1ccccc1)NC(=O)[C@@H](NC(=O)CNC(=O)[C@H](CCC(=O)O)NC(=O)C(C)(C)NC(=O)[C@@H](N)Cc1ccc(O)cc1)[C@@H](C)O)[C@@H](C)O)C(=O)N[C@@H](C)C(=O)N[C@@H](CC(C)C)C(=O)N[C@@H](CC(=O)O)C(=O)N[C@@H](CCC(=O)O)C(=O)N[C@@H](CCCCNC(=O)COCCOCCNC(=O)COCCOCCNC(=O)CC[C@H](NC(=O)CCCCCCCCCCCCCCCCCCC(=O)O)C(=O)O)C(=O)N[C@@H](C)C(=O)N[C@@H](CCC(N)=O)C(=O)N[C@@H](CCCNC(=N)N)C(=O)N[C@@H](C)C(=O)N[C@@H](Cc1ccccc1)C(=O)N[C@H](C(=O)N[C@@H](CCC(=O)O)C(=O)N[C@@H](Cc1c[nH]c2ccccc12)C(=O)N[C@@H](CC(C)C)C(=O)N[C@@H](CC(C)C)C(=O)N[C@@H](C)C(=O)N[C@@H](CCC(N)=O)C(=O)NCC(=O)N1CCC[C@H]1C(=O)N[C@@H](CO)C(=O)N[C@@H](CO)C(=O)NCC(=O)N[C@@H](C)C(=O)N1CCC[C@H]1C(=O)N1CCC[C@H]1C(=O)N1CCC[C@H]1C(=O)N[C@@H](CO)C(N)=O)C(C)C` [Compound 43] (H-Y[Aib]EGTFTSDYSIALDEK([AEEA-AEEA-γGlu-C20 diacid])AQRAFVEWLLAQGPSSGAPPPS-NH2): the EC50 was 5 pM at human GIP R and 16 pM at human GLP-1 R.
Taken in the same sequence, the figures for `CC[C@H](C)[C@H](NC(=O)[C@H](CO)NC(=O)[C@H](Cc1ccc(O)cc1)NC(=O)[C@H](CC(=O)O)NC(=O)[C@H](CO)NC(=O)[C@@H](NC(=O)[C@H](Cc1ccccc1)NC(=O)[C@@H](NC(=O)CNC(=O)[C@H](CCC(=O)O)NC(=O)C(C)(C)NC(=O)[C@@H](N)Cc1ccc(O)cc1)[C@@H](C)O)[C@@H](C)O)C(=O)N[C@@H](C)C(=O)N[C@@H](CC(C)C)C(=O)N[C@@H](CC(=O)O)C(=O)N[C@@H](CCC(=O)O)C(=O)N[C@@H](CCCCNC(=O)COCCOCCNC(=O)COCCOCCNC(=O)CC[C@H](NC(=O)CCCCCCCCCCCCCCCCCCC(=O)O)C(=O)O)C(=O)N[C@@H](C)C(=O)N[C@@H](CCC(N)=O)C(=O)N[C@@H](CCCNC(=N)N)C(=O)N[C@@H](C)C(=O)N[C@@H](Cc1ccccc1)C(=O)N[C@H](C(=O)N[C@@H](CCC(=O)O)C(=O)N[C@@H](Cc1c[nH]c2ccccc12)C(=O)N[C@@H](CC(C)C)C(=O)N[C@@H](CC(C)C)C(=O)N[C@@H](C)C(=O)N[C@@H](C)C(=O)NCC(=O)N1CCC[C@H]1C(=O)N[C@@H](CO)C(=O)N[C@@H](CO)C(=O)NCC(=O)N[C@@H](C)C(=O)N1CCC[C@H]1C(=O)N1CCC[C@H]1C(=O)N1CCC[C@H]1C(=O)N[C@@H](CO)C(N)=O)C(C)C` [Compound 44] (H-Y[Aib]EGTFTSDYSIALDEK([AEEA-AEEA-γGlu-C20 diacid])AQRAFVEWLLAAGPSSGAPPPS-NH2) were 7 pM and 15 pM.
The corresponding values for `CC[C@H](C)[C@H](NC(=O)[C@H](CO)NC(=O)[C@H](Cc1ccc(O)cc1)NC(=O)[C@H](CC(=O)O)NC(=O)[C@H](CO)NC(=O)[C@@H](NC(=O)[C@H](Cc1ccccc1)NC(=O)[C@@H](NC(=O)CNC(=O)[C@H](CCC(=O)O)NC(=O)C(C)(C)NC(=O)[C@@H](N)Cc1ccc(O)cc1)[C@@H](C)O)[C@@H](C)O)C(=O)N[C@@H](C)C(=O)N[C@@H](CC(C)C)C(=O)N[C@@H](CC(=O)O)C(=O)N[C@@H](CCCCN)C(=O)N[C@@H](CCCCNC(=O)COCCOCCNC(=O)COCCOCCNC(=O)CC[C@H](NC(=O)CCCCCCCCCCCCCCCCCCC(=O)O)C(=O)O)C(=O)N[C@@H](C)C(=O)N[C@@H](CCC(N)=O)C(=O)N[C@@H](CCCCN)C(=O)N[C@@H](C)C(=O)N[C@@H](Cc1ccccc1)C(=O)N[C@H](C(=O)N[C@@H](CCC(=O)O)C(=O)N[C@@H](Cc1c[nH]c2ccccc12)C(=O)N[C@@H](CC(C)C)C(=O)N[C@@H](CC(C)C)C(=O)N[C@@H](C)C(=O)N[C@@H](C)C(=O)NCC(=O)N1CCC[C@H]1C(=O)N[C@@H](CO)C(=O)N[C@@H](CO)C(=O)NCC(=O)N[C@@H](C)C(=O)N1CCC[C@H]1C(=O)N1CCC[C@H]1C(=O)N1CCC[C@H]1C(=O)N[C@@H](CO)C(N)=O)C(C)C` [Compound 45] (H-Y[Aib]EGTFTSDYSIALDKK([AEEA-AEEA-γGlu-C20 diacid])AQKAFVEWLLAAGPSSGAPPPS-NH2) are 5 pM and 24 pM.
Taken in the same sequence, the figures for `CC[C@H](C)[C@H](NC(=O)[C@H](CO)NC(=O)[C@H](Cc1ccc(O)cc1)NC(=O)[C@H](CC(=O)O)NC(=O)[C@H](CO)NC(=O)[C@@H](NC(=O)[C@H](Cc1ccccc1)NC(=O)[C@@H](NC(=O)CNC(=O)[C@H](CCC(=O)O)NC(=O)C(C)(C)NC(=O)[C@@H](N)Cc1ccc(O)cc1)[C@@H](C)O)[C@@H](C)O)C(=O)N[C@@H](Cc1ccc(O)cc1)C(=O)N[C@@H](CC(C)C)C(=O)N[C@@H](CC(=O)O)C(=O)N[C@@H](CCCCN)C(=O)N[C@@H](CCCCNC(=O)COCCOCCNC(=O)COCCOCCNC(=O)CC[C@H](NC(=O)CCCCCCCCCCCCCCCCCCC(=O)O)C(=O)O)C(=O)N[C@@H](C)C(=O)N[C@@H](CCC(N)=O)C(=O)N[C@@H](CCCNC(=N)N)C(=O)N[C@@H](CCC(=O)O)C(=O)N[C@@H](Cc1ccccc1)C(=O)N[C@H](C(=O)N[C@@H](CCC(=O)O)C(=O)N[C@@H](Cc1c[nH]c2ccccc12)C(=O)N[C@@H](CC(C)C)C(=O)N[C@@H](CC(C)C)C(=O)N[C@@H](C)C(=O)N[C@@H](CCC(N)=O)C(=O)NCC(=O)N1CCC[C@H]1C(=O)N[C@@H](CO)C(=O)N[C@@H](CO)C(=O)NCC(=O)N[C@@H](C)C(=O)N1CCC[C@H]1C(=O)N1CCC[C@H]1C(=O)N1CCC[C@H]1C(=O)N[C@@H](CO)C(N)=O)C(C)C` [Compound 46] (H-Y[Aib]EGTFTSDYSIYLDKK([AEEA-AEEA-γGlu-C20 diacid])AQREFVEWLLAQGPSSGAPPPS-NH2) were 6 pM and 10 pM.
Regarding `CC[C@H](C)[C@H](NC(=O)[C@H](CO)NC(=O)[C@H](Cc1ccc(O)cc1)NC(=O)[C@H](CC(=O)O)NC(=O)[C@H](CO)NC(=O)[C@@H](NC(=O)[C@H](Cc1ccccc1)NC(=O)[C@@H](NC(=O)CNC(=O)[C@H](CCC(=O)O)NC(=O)C(C)(C)NC(=O)[C@@H](N)Cc1ccc(O)cc1)[C@@H](C)O)[C@@H](C)O)C(=O)N[C@@H](C)C(=O)N[C@@H](CC(C)C)C(=O)N[C@@H](CC(=O)O)C(=O)N[C@@H](CCCCN)C(=O)N[C@@H](CCCCNC(=O)COCCOCCNC(=O)COCCOCCNC(=O)CC[C@H](NC(=O)CCCCCCCCCCCCCCCCCCC(=O)O)C(=O)O)C(=O)N[C@@H](C)C(=O)N[C@@H](CCC(N)=O)C(=O)N[C@@H](CCCNC(=N)N)C(=O)N[C@@H](CCC(=O)O)C(=O)N[C@@H](Cc1ccccc1)C(=O)N[C@H](C(=O)N[C@@H](CCC(=O)O)C(=O)N[C@@H](Cc1c[nH]c2ccccc12)C(=O)N[C@@H](CC(C)C)C(=O)N[C@@H](CC(C)C)C(=O)N[C@@H](C)C(=O)N[C@@H](CCC(N)=O)C(=O)NCC(=O)N1CCC[C@H]1C(=O)N[C@@H](CO)C(=O)N[C@@H](CO)C(=O)NCC(=O)N[C@@H](C)C(=O)N1CCC[C@H]1C(=O)N1CCC[C@H]1C(=O)N1CCC[C@H]1C(=O)N[C@@H](CO)C(N)=O)C(C)C` [Compound 47] (H-Y[Aib]EGTFTSDYSIALDKK([AEEA-AEEA-γGlu-C20 diacid])AQREFVEWLLAQGPSSGAPPPS-NH2), the values for the EC50 on human GIP R and on human GLP-1 R were 5 pM and 16 pM, respectively.
Taken in the same sequence, the figures for `CC[C@H](C)[C@H](NC(=O)[C@H](CO)NC(=O)[C@H](Cc1ccc(O)cc1)NC(=O)[C@H](CC(=O)O)NC(=O)[C@H](CO)NC(=O)[C@@H](NC(=O)[C@H](Cc1ccccc1)NC(=O)[C@@H](NC(=O)CNC(=O)[C@H](CCC(=O)O)NC(=O)C(C)(C)NC(=O)[C@@H](N)Cc1ccc(O)cc1)[C@@H](C)O)[C@@H](C)O)C(=O)N[C@@H](C)C(=O)N[C@@H](CC(C)C)C(=O)N[C@@H](CC(=O)O)C(=O)N[C@@H](CCCCN)C(=O)N[C@@H](CCCCNC(=O)COCCOCCNC(=O)COCCOCCNC(=O)CC[C@H](NC(=O)CCCCCCCCCCCCCCCCCCC(=O)O)C(=O)O)C(=O)N[C@@H](C)C(=O)N[C@@H](CCC(N)=O)C(=O)N[C@@H](CCCCN)C(=O)N[C@@H](CCC(=O)O)C(=O)N[C@@H](Cc1ccccc1)C(=O)N[C@H](C(=O)N[C@@H](CCC(=O)O)C(=O)N[C@@H](Cc1c[nH]c2ccccc12)C(=O)N[C@@H](CC(C)C)C(=O)N[C@@H](CC(C)C)C(=O)N[C@@H](C)C(=O)N[C@@H](CCC(N)=O)C(=O)NCC(=O)N1CCC[C@H]1C(=O)N[C@@H](CO)C(=O)N[C@@H](CO)C(=O)NCC(=O)N[C@@H](C)C(=O)N1CCC[C@H]1C(=O)N1CCC[C@H]1C(=O)N1CCC[C@H]1C(=O)N[C@@H](CO)C(N)=O)C(C)C` [Compound 48] (H-Y[Aib]EGTFTSDYSIALDKK([AEEA-AEEA-γGlu-C20 diacid])AQKEFVEWLLAQGPSSGAPPPS-NH2) were 6 pM and 52 pM.
